Data set [1] deals with HL-60. Put plainly: Growth inhibition of human HL60 cells expressing low levels of FLT3 after 72 hrs by Cell-Titer Glo assay. The format is functional, cell-based. The following applies: HL-60, 72 h.
The target of data set [2] is T1, Vascular endothelial growth factor receptor 3 (Homo sapiens, UniProt P35916). The data set is described as follows: Inhibition of human FLT4 at 0.123 uM by Hotspot assay relative to control.
The test system of data set [3] is MOLM-13. The data set is described as follows: Growth inhibition of human MOLM13 cells harboring FLT3-ITD after 72 hrs by Cell-Titer Glo assay. The following applies: MOLM-13, 72 h. The format is functional, cell-based.
Data set [4] concerns the target Receptor-type tyrosine-protein kinase FLT3 (Homo sapiens, UniProt P36888, F691L/ITD). The data set is described as follows: Binding affinity to human FLT3 ITD/F691L double mutant expressed in bacterial expression system by Kinomescan method.
For data set [5], the system named is MV4-11. Put plainly: Induction of apoptosis in human MV4-11 cells assessed as late apoptotic cells at 0.2 uM after 24 hrs by Annexin V-FITC/propidium iodide staining based flow cytometry (reference value: 0%). The format is functional. A general note: A flow cytometer gives signals particle by particle.
Data set [6] deals with T1, Vascular endothelial growth factor receptor 3. The data set is described as follows: Inhibition of human FLT4 by Hotspot assay.
For data set [7], the system named is MV4-11. Put plainly: Growth inhibition of human MV4-11 cells harboring FLT3-ITD after 72 hrs by Cell-Titer Glo assay. The format is functional, cell-based. To be noted: MV4-11, 72 h.
Data set [8] deals with Vascular endothelial growth factor receptor 1 (Homo sapiens, UniProt P17948). The data set is described as follows: Inhibition of human FLT1 at 0.123 uM by Hotspot assay relative to control.
In data set [9] the target is Mast/stem cell growth factor receptor Kit (Homo sapiens, UniProt P10721). The data set is described as follows: Inhibition of human KIT at 0.123 uM by Hotspot assay.
Data set [10] relates to MV4-11. Put plainly: Induction of apoptosis in human MV4-11 cells assessed as early apoptotic cells at 0.5 uM after 24 hrs by Annexin V-FITC/propidium iodide staining based flow cytometry (reference value: 0%). The format is functional.
For data set [11], the target named is Receptor-type tyrosine-protein kinase FLT3 (Homo sapiens, UniProt P36888). Put plainly: Inhibition of human FLT3 F594_R595insREY mutant by Hotspot assay.
Data set [12] has as its target Receptor-type tyrosine-protein kinase FLT3 (Homo sapiens, UniProt P36888, ITD). Put plainly: Inhibition of human FLT3 ITD-W51 mutant by Hotspot assay.
The target in data set [13] is Vascular endothelial growth factor receptor 2 (Homo sapiens, UniProt P35968). The data set is described as follows: Inhibition of human KDR by Hotspot assay.

Some results are limits rather than exact numbers.

T1 sequence (P35916 whole entry): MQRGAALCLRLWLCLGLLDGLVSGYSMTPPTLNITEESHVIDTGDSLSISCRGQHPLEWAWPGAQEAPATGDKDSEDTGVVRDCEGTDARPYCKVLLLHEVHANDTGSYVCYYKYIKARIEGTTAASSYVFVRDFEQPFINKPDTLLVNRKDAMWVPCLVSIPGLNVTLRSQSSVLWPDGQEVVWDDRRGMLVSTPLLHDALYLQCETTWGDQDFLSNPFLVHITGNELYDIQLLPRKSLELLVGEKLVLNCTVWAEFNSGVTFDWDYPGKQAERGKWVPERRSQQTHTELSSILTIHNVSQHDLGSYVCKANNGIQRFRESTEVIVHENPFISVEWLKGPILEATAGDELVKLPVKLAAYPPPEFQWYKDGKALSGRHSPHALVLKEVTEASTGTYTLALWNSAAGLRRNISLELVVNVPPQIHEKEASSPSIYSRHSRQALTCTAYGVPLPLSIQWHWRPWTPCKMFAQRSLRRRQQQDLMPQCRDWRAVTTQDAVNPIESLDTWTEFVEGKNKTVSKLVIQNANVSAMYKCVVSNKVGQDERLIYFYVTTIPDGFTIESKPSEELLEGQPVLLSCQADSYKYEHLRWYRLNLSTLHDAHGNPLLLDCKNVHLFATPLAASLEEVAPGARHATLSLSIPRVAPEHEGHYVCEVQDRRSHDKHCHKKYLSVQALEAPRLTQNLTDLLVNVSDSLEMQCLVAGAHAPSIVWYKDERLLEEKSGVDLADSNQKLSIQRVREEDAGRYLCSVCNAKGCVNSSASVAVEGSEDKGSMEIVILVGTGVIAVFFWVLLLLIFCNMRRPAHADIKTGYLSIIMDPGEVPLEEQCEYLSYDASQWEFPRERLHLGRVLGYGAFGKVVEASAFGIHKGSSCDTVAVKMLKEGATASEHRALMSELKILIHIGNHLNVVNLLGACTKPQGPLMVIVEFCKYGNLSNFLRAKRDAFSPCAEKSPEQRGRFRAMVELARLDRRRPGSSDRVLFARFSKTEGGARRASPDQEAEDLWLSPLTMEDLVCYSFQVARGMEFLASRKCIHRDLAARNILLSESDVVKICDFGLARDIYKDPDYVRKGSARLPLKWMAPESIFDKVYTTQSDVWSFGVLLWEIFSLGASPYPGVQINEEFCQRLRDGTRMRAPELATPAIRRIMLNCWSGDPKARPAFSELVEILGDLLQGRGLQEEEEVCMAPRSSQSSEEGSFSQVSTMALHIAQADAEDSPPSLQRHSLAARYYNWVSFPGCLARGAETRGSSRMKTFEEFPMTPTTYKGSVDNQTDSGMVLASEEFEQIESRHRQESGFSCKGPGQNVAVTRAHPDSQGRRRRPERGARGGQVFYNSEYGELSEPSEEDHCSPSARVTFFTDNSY
Sequence of Receptor-type tyrosine-protein kinase FLT3 (Homo sapiens, UniProt P36888, F691L/ITD) (P36888 whole entry, looked up, stated change not applied): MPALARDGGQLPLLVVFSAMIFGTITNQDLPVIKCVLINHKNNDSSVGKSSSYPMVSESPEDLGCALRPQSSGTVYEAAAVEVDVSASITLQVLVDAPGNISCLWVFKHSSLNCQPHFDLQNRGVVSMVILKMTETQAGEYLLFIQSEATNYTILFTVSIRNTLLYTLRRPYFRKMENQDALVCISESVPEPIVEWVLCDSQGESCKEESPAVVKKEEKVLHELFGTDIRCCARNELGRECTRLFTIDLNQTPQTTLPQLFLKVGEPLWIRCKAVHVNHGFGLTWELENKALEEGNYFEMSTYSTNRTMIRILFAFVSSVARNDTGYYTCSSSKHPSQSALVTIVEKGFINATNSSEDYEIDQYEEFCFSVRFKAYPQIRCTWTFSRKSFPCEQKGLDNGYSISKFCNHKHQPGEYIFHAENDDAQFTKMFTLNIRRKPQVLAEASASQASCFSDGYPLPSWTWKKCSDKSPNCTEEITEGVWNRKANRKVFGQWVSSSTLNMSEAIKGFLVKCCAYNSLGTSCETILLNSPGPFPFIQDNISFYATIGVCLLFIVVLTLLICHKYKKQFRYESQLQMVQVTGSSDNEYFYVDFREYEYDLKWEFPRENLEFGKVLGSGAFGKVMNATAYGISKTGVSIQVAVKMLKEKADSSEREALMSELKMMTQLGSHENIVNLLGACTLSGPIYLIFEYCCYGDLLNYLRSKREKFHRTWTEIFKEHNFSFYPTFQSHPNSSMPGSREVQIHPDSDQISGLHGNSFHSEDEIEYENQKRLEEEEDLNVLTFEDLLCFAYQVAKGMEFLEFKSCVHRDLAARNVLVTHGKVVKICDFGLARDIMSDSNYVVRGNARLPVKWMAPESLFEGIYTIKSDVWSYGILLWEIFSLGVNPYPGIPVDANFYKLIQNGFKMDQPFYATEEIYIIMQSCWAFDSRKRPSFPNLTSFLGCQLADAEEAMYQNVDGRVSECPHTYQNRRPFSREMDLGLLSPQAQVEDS
Sequence of Receptor-type tyrosine-protein kinase FLT3 (Homo sapiens, UniProt P36888, ITD) (P36888 whole entry, looked up, change not shown): as the sequence (P36888 whole entry, looked up, stated change not applied) above
Sequence of Vascular endothelial growth factor receptor 1 (P17948 whole entry): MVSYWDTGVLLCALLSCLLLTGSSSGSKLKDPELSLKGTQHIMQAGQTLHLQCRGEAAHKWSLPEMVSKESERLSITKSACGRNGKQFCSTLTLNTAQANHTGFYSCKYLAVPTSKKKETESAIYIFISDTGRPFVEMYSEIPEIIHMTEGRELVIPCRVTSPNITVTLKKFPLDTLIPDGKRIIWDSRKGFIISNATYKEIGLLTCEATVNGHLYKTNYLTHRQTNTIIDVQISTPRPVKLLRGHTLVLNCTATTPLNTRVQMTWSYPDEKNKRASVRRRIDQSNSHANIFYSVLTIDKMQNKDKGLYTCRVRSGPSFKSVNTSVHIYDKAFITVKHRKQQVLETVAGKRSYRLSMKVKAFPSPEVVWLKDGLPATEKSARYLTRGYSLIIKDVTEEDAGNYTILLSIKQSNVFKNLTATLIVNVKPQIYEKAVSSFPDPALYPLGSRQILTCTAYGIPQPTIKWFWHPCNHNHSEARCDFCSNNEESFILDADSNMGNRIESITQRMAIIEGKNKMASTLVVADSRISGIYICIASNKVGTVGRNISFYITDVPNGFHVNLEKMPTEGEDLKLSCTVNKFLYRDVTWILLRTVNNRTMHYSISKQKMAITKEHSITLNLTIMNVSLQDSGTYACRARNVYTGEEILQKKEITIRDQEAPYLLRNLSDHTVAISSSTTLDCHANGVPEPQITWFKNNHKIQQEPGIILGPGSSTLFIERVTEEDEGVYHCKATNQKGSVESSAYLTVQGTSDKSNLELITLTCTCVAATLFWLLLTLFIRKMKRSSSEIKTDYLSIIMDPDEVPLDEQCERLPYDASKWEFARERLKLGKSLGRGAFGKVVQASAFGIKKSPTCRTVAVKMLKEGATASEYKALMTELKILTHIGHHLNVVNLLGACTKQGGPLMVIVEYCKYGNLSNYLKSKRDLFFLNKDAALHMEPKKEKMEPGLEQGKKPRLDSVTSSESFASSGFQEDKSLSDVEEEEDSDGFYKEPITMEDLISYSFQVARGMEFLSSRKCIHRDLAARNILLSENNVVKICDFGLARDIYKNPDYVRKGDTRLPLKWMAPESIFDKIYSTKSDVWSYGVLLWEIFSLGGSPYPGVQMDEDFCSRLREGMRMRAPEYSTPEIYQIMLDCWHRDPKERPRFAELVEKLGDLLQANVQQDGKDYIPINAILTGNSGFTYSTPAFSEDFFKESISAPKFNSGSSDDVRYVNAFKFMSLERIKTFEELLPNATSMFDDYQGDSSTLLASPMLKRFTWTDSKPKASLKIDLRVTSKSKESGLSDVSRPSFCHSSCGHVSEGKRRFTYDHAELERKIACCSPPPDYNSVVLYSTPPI
Sequence of Receptor-type tyrosine-protein kinase FLT3 (Homo sapiens, UniProt P36888) (P36888 27-993 limits assumed): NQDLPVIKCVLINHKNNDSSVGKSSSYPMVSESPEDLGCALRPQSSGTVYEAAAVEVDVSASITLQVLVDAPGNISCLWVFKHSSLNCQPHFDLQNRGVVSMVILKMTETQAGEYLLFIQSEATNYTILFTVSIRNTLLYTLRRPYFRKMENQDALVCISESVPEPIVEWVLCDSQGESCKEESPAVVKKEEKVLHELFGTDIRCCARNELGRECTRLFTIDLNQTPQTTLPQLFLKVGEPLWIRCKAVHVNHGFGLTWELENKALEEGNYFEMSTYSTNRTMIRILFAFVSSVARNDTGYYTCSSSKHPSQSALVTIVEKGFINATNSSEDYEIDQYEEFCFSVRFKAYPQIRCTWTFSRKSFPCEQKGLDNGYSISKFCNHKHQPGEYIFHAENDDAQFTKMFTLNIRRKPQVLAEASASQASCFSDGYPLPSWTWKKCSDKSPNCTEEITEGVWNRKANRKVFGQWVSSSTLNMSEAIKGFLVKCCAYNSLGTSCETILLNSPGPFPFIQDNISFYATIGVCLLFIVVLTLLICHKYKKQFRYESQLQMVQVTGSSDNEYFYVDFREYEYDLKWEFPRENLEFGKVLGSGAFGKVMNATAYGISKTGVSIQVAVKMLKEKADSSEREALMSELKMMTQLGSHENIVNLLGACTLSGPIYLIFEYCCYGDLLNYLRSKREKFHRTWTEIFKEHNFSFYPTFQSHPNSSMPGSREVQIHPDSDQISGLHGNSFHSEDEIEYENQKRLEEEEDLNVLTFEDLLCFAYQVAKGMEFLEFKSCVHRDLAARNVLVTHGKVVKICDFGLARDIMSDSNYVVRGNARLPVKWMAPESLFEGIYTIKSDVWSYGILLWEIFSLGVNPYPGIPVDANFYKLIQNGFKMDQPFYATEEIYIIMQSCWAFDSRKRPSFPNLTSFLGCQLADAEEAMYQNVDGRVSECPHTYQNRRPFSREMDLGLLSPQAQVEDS

For the compound `Cc1nc2c(c(Nc3c[nH]nc3C(=O)Nc3ccc(N4CCNCC4)cc3)n1)CCC2`, the IC50 was 26700 nM in data set [1]; 37 nM in data set [3]; 23 nM in [6]; 16 nM in [7]; 9.15 nM in data set [11]; 12.8 nM in data set [12]. This compound had an IC50 in data set [13] of 94.6 nM. The inhibition in data set [2] and in data set [8] was greater than 50% throughout. The same compound returned a Kd in [4] of 13.1 nM. For the same compound, the Activity stood at 12.8% in data set [5] and 60.4% in [10]. Also, the “inhibition (INH)” value in data set [9] is listed as “Not Active”.

For orientation: IC50 means the concentration needed to halve the response being measured. High values mean lower potency, low ones higher potency. One may read the inhibition as how much of the control response was suppressed. High values mean a strong effect, low ones a weak effect. Usually Kd stands for the equilibrium constant for the complex coming apart.

The values above are taken from ChEMBL document CHEMBL4152300, “Discovery of the selective and efficacious inhibitors of FLT3 mutations” (Eur J Med Chem, 2018).
